Experimental data reported in patent US9340537B2, “Benzamide derivatives for inhibiting the activity of ABL1, ABL2 and BCR-ABL1” (NOVATIS AG, priority 2012, dated 2016).

Assays:
[1] = target: T1, ABL1 (64-515) (Homo sapiens (Human), UniProt P00519); test: Caliper ABL1 (64-515) microfluidic mobility shift kinase assay; details: read-out: Caliper ABL1 (64-515) IC50
[2] = target: T1, ABL1 (64-515); test: Radio ABL1 (64-515) radiometric filter-binding kinase assay; format: biochemical; details: 20 μM ATP
Protocol: Pre-incubation of enzyme with compounds (when stated) was performed by exposing the enzyme to compounds prior to addition of the substrate mixture (ATP and/or peptide substrate). […] Filter-plates were washed 3× with 0.5% H3PO4, followed by addition of 30 μL scintillation cocktail (Microscint, Perkin Elmer) per well and then analysed in a TopCount NXT scintillation counter (Perkin Elmer). Results were expressed as IC50 values.

T1 sequence (P00519 64-515): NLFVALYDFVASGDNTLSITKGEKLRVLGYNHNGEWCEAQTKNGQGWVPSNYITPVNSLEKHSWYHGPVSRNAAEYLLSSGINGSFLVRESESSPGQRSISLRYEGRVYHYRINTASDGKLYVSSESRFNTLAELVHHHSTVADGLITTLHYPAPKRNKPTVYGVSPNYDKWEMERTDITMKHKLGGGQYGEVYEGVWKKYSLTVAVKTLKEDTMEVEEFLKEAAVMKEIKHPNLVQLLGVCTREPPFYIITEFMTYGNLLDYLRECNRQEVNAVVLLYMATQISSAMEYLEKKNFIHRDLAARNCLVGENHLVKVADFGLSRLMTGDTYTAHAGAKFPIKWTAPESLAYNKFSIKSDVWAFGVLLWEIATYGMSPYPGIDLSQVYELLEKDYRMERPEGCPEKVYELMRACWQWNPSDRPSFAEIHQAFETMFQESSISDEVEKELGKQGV

Row | SMILES | IC50 [1] | IC50 [2]
1 | NC[C@H]1CN(c2ncc(C(=O)Nc3ccc(OC(F)(F)Cl)cc3)cc2-c2ccn[nH]2)C[C@H]1O (relative stereo) [Example 80, 6-(cis-3-(Aminomethyl)-4-hydroxypyrrolidin-1-yl)-N-(4-(chlorodifluoromethoxy)phenyl)-5-(1H-pyrazol-5-yl)nicotinamide] | < 0.13 nM | 0.4 nM
2 | O=C(Nc1ccc(OC(F)(F)F)cc1)c1cnc(N2CCCC2)c(-c2ccn[nH]2)c1 [Example 15, 5-(1H-Pyrazol-5-yl)-6-(pyrrolidin-1-yl)-N-(4-(trifluoromethoxy)phenyl)nicotinamide] | 0.8 nM | < 3 nM
3 | Cc1ncc(-c2cc(C(=O)Nc3ccc(OC(F)(F)F)cc3)cnc2N2CC[C@H](CO)C2)s1 [Example 16, (S)-6-(3-(Hydroxymethyl)pyrrolidin-1-yl)-5-(2-methylthiazol-5-yl)-N-(4-(trifluoromethoxy)phenyl)nicotinamide] | 1.1 nM | < 3 nM
4 | O=C(Nc1ccc(OC(F)(F)F)cc1)c1cnc(N2CCOCC2)c(-c2ccn[nH]2)c1 [Example 18, 6-Morpholino-5-(1H-pyrazol-5-yl)-N-(4-(trifluoromethoxy)phenyl)nicotinamide] | 6.5 nM | 5 nM
5 | CN(CCO)c1ccc(C(=O)Nc2ccc(OC(F)(F)F)cc2)cc1-c1cncs1 [Example 20, 4-((2-Hydroxyethyl)(methyl)amino)-3-(thiazol-5-yl)-N-(4-(trifluoromethoxy)phenyl)benzamide] | 5 nM | < 3 nM
6 | CN(CCO)c1ncc(C(=O)Nc2ccc(OC(F)(F)Cl)cc2)cc1-c1ccn[nH]1 [Example 23, N-(4-(Chlorodifluoromethoxy)phenyl)-6-((2-hydroxyethyl)(methyl)amino)-5-(1H-pyrazol-5-yl)nicotinamide] | 3.4 nM | 2.7 nM
7 | O=C(Nc1ccc(SC(F)(F)F)cc1)c1cnc(N2CC[C@@H](O)C2)c(-c2ccc[nH]2)c1 [Example 25, (R)-6-(3-Hydroxypyrrolidin-1-yl)-5-(1H-pyrrol-2-yl)-N-(4-((trifluoromethyl)thio)phenyl)nicotinamide] | 2.6 nM | 3.7 nM
8 | CN(CCO)c1ncc(C(=O)Nc2ccc(SC(F)(F)F)cc2)cc1-c1ccn[nH]1 [Example 26, 6-((2-Hydroxyethyl)(methyl)amino)-5-(1H-pyrazol-5-yl)-N-(4-((trifluoromethyl)thio)phenyl)nicotinamide] | 1 nM | 11 nM
9 | O=C(Nc1ccc(OC(F)(F)F)cc1)c1ccc(N2C[C@H](O)[C@@H](O)C2)c(-c2ccc[nH]2)c1 [Example 28, 4-((3S,4S)-3,4-Dihydroxypyrrolidin-1-yl)-3-(1H-pyrrol-2-yl)-N-(4-(trifluoromethoxy)phenyl)benzamide] | 4.2 nM | 3 nM
10 | N#Cc1ccc(-c2cc(C(=O)Nc3ccc(OC(F)(F)F)cc3)ccc2N2C[C@H](O)[C@@H](O)C2)[nH]1 [Example 29, 3-(5-Cyano-1H-pyrrol-2-yl)-4-((3S,4S)-3,4-dihydroxypyrrolidin-1-yl)-N-(4-(trifluoromethoxy)phenyl)benzamide] | 0.5 nM | < 0.1 nM
11 | N#Cc1ccc(-c2cc(C(=O)Nc3ccc(OC(F)(F)F)cc3)cnc2N2C[C@H](O)[C@@H](O)C2)[nH]1 [Example 31, 5-(5-Cyano-1H-pyrrol-2-yl)-6-((3S,4S)-3,4-dihydroxypyrrolidin-1-yl)-N-(4-(trifluoromethoxy)phenyl)nicotinamide] | < 0.13 nM | < 0.1 nM
12 | NC12CC1CN(c1ncc(C(=O)Nc3ccc(OC(F)(F)F)cc3)cc1-c1ccn[nH]1)C2 (centres unmarked) [Example 33, 6-(1-Amino-3-azabicyclo[3.1.0]hexan-3-yl)-5-(1H-pyrazol-5-yl)-N-(4-(trifluoromethoxy)phenyl)nicotinamide] | 5 nM | 3 nM
13 | O=C(Nc1ccc(OC(F)(F)F)cc1)c1cnc(N2CCOC(CO)C2)c(-c2ccn[nH]2)c1 (centres unmarked) [Example 36, 6-(2-(Hydroxymethyl)morpholino)-5-(1H-pyrazol-5-yl)-N-(4-(trifluoromethoxy)phenyl)nicotinamide] | 8.1 nM | 5 nM
14 | CN(C)C1CN(c2ncc(C(=O)Nc3ccc(OC(F)(F)F)cc3)cc2-c2ccn[nH]2)C1 [Example 38, 6-(3-(Dimethylamino)azetidin-1-yl)-5-(1H-pyrazol-5-yl)-N-(4-(trifluoromethoxy)phenyl)nicotinamide] | 1.5 nM | 8 nM
15 | O=C(Nc1ccc(OC(F)(F)F)cc1)c1cnc(N2CC(CO)C2)c(-c2ccn[nH]2)c1 [Example 39, 6-(3-(Hydroxymethyl)azetidin-1-yl)-5-(1H-pyrazol-5-yl)-N-(4-(trifluoromethoxy)phenyl)nicotinamide] | 4.5 nM | 3 nM
16 | CC1(O)CN(c2ncc(C(=O)Nc3ccc(OC(F)(F)F)cc3)cc2-c2ccn[nH]2)C1 [Example 40, 6-(3-Hydroxy-3-methylazetidin-1-yl)-5-(1H-pyrazol-5-yl)-N-(4-(trifluoromethoxy)phenyl)nicotinamide] | 5.3 nM | 4 nM

Row | SMILES | IC50 [1] | IC50 [2]
17 | Cc1cc(-c2cc(C(=O)Nc3ccc(OC(F)(F)F)cc3)cnc2N2CC(CO)C2)[nH]n1 [Example 42, 6-(3-(Hydroxymethyl)azetidin-1-yl)-5-(3-methyl-1H-pyrazol-5-yl)-N-(4-(trifluoromethoxy)phenyl)nicotinamide] | 18 nM | 2 nM
18 | N#Cc1cc(-c2cc(C(=O)Nc3ccc(OC(F)(F)F)cc3)cnc2N2CCCC2)[nH]n1 [Example 44, 5-(3-Cyano-1H-pyrazol-5-yl)-6-(pyrrolidin-1-yl)-N-(4-(trifluoromethoxy)phenyl)nicotinamide] | 7.1 nM | 19 nM
19 | N#Cc1ccc(-c2cc(C(=O)Nc3ccc(OC(F)(F)Cl)cc3)cnc2N2C[C@H](O)[C@@H](O)C2)[nH]1 [Example 46, N-(4-(Chlorodifluoromethoxy)phenyl)-5-(5-cyano-1H-pyrrol-2-yl)-6-((3S,4S)-3,4-dihydroxypyrrolidin-1-yl)nicotinamide] | 0.4 nM | 1 nM
20 | Cn1c(C#N)ccc1-c1cc(C(=O)Nc2ccc(OC(F)(F)Cl)cc2)cnc1N1CC[C@@H](O)C1 [Example 47, (R)—N-(4-(Chlorodifluoromethoxy)phenyl)-5-(5-cyano-1-methyl-1H-pyrrol-2-yl)-6-(3-hydroxypyrrolidin-1-yl)nicotinamide] | 1.6 nM | 0.9 nM
21 | NCC1(F)CCN(c2ncc(C(=O)Nc3ccc(OC(F)(F)Cl)cc3)cc2-c2ccn[nH]2)C1 (centres unmarked) [Example 51, 6-(3-(Aminomethyl)-3-fluoropyrrolidin-1-yl)-N-(4-(chlorodifluoromethoxy)phenyl)-5-(1H-pyrazol-5-yl)nicotinamide] | 1.1 nM | 4.9 nM
22 | CN(C)[C@H]1CN(c2ncc(C(=O)Nc3ccc(OC(F)(F)Cl)cc3)cc2-c2ccn[nH]2)C[C@@H]1O [Example 53, N-(4-(Chlorodifluoromethoxy)phenyl)-6-((3S,4S)-3-(dimethylamino)-4-hydroxypyrrolidin-1-yl)-5-(1H-pyrazol-5-yl)nicotinamide] | 1.4 nM | < 0.1 nM
23 | NC12CC1CN(c1ncc(C(=O)Nc3ccc(OC(F)(F)Cl)cc3)cc1-c1ccn[nH]1)C2 (centres unmarked) [Example 54, 6-(1-Amino-3-azabicyclo[3.1.0]hexan-3-yl)-N-(4-(chlorodifluoromethoxy)phenyl)-5-(1H-pyrazol-5-yl)nicotinamide] | 0.4 nM | 1 nM
24 | N[C@@H]1[C@H]2CN(c3ncc(C(=O)Nc4ccc(OC(F)(F)Cl)cc4)cc3-c3ccn[nH]3)C[C@@H]12 [Example 55, 6-((1R,5S,6s)-6-Amino-3-azabicyclo[3.1.0]hexan-3-yl)-N-(4-(chlorodifluoromethoxy)phenyl)-5-(1H-pyrazol-5-yl)nicotinamide] | 0.2 nM | 1 nM
25 | O=C(Nc1ccc(OC(F)(F)Cl)cc1)c1cnc(N2CCNC3(CC3)C2)c(-c2ccn[nH]2)c1 [Example 56, N-(4-(Chlorodifluoromethoxy)phenyl)-5-(1H-pyrazol-5-yl)-6-(4,7-diazaspiro[2.5]octan-7-yl)nicotinamide] | 2.9 nM | 1 nM
26 | O=C(Nc1ccc(OC(F)(F)Cl)cc1)c1cnc(N2CCN(C3CC3)CC2)c(-c2ccn[nH]2)c1 [Example 57, N-(4-(Chlorodifluoromethoxy)phenyl)-6-(4-cyclopropylpiperazin-1-yl)-5-(1H-pyrazol-5-yl)nicotinamide] | 3.4 nM | 5.8 nM
27 | O=C(Nc1ccc(OC(F)(F)Cl)cc1)c1cnc(N2CCN(CCF)CC2)c(-c2ccn[nH]2)c1 [Example 58, N-(4-(Chlorodifluoromethoxy)phenyl)-6-(4-(2-fluoroethyl)piperazin-1-yl)-5-(1H-pyrazol-5-yl)nicotinamide] | 2.4 nM | 5.7 nM
28 | O=C(Nc1ccc(OC(F)(F)Cl)cc1)c1cnc(N2CCN(CC(F)F)CC2)c(-c2ccn[nH]2)c1 [Example 59, N-(4-(Chlorodifluoromethoxy)phenyl)-6-(4-(2,2-difluoroethyl)piperazin-1-yl)-5-(1H-pyrazol-5-yl)nicotinamide] | 3.3 nM | 26 nM
29 | O=C(Nc1ccc(OC(F)(F)Cl)cc1)c1cnc(N2CCN(CC(F)(F)F)CC2)c(-c2ccn[nH]2)c1 [Example 60, N-(4-(Chlorodifluoromethoxy)phenyl)-5-(1H-pyrazol-5-yl)-6-(4-(2,2,2-trifluoroethyl)piperazin-1-yl)nicotinamide] | < 0.64 nM | 1 nM
30 | NC1CN(c2ncc(C(=O)Nc3ccc(OC(F)(F)Cl)cc3)cc2-c2ccn[nH]2)C1 [Example 64, 6-(3-Aminoazetidin-1-yl)-N-(4-(chlorodifluoromethoxy)phenyl)-5-(1H-pyrazol-5-yl)nicotinamide] | 0.2 nM | 4 nM
31 | CN(C)C1CN(c2ncc(C(=O)Nc3ccc(OC(F)(F)Cl)cc3)cc2-c2ccn[nH]2)C1 [Example 65, N-(4-(Chlorodifluoromethoxy)phenyl)-6-(3-(dimethylamino)azetidin-1-yl)-5-(1H-pyrazol-5-yl)nicotinamide] | 0.9 nM | 5.6 nM
